Experimental findings from ChEMBL document CHEMBL3507680, “University of Dundee, Gates Library screen for HepG2 cell viability” are described below.

Molecules are shown by their SMILES.

The nature of this series: Human HepG2 cell viability assay in 384 well format. Format: toxicity, cell-based. Also on record: dose 125 nL, time 70.5 hour; concentration not given beside the values. The note with it: HepG2 cells, read-out: Inhibition.
Take `CC(C)c1noc(C(C)S(=O)(=O)CC(=O)N2CCCC2)n1` (centres undefined): the cytotoxicity at 70.5 h amounted to 17.4%.

For `Cc1ccc(CN2CCc3[nH]nc(C(=O)N(C)C)c3C2)s1`, the cytotoxicity at 70.5 h was 3.17%. Take `CC(C)CN1CC[C@@H]2[C@@H]1CCN2S(=O)(=O)c1cccs1`: the cytotoxicity at 70.5 h was -18%. In the case of `CCCn1ncc(CN2C[C@@H]3CCCN3C[C@@H]2Cc2ccccc2)c1C`, the cytotoxicity at 70.5 h was -2.55%. For the compound `CCc1ccc(CN2CCC(c3ccccc3C(=O)O)C2)nc1` (centres undefined), the cytotoxicity at 70.5 h was -13.9%. In the case of `O=C(O)Cn1ccc(=O)c2ccccc21`, the cytotoxicity at 70.5 h was -14.9%. Take `COC(=O)COn1c(SC(C)C)nc2ccccc2c1=O`: the cytotoxicity at 70.5 h was -3.63%. Under `c1cnc(N2CCC(c3cc4cccnc4[nH]3)CC2)nc1` stands -5.37%. Take `O=C1N(Cc2ccc(F)c(F)c2)CCCC12CCN(C1CCCCC1)C2` (centres undefined): the cytotoxicity at 70.5 h came out at 1.47%. With `COc1ccncc1NC(=O)C1(c2ccccc2)CC1`, the cytotoxicity at 70.5 h was -8.43%. As to `CCCNC(c1cccnc1)c1ccc(F)c(C)c1` (centres undefined), the cytotoxicity at 70.5 h was -13.4%.

As to `Cc1nc(NCC2CC2)nc2c1COCC21CCN(C)C1` (centres undefined), the cytotoxicity at 70.5 h was -3.52%. Turning to `O=C(C1CCCO1)N1CCC(c2nc(-c3ccccc3)n[nH]2)CC1` (centres undefined), the cytotoxicity at 70.5 h turned out to be 1.35%.

With `CC(=O)N(C)CC(=O)NC1(c2ccc(Br)cc2)CC1`, the cytotoxicity at 70.5 h was found to be 4.73%. As to `Cc1ccc(-c2nc(C(=O)N3CCCC(C(N)=O)C3)cs2)c(C)c1` (centres undefined), the cytotoxicity at 70.5 h was -8.34%. Under `Cc1ccc(S(=O)(=O)NCCCN2CCC(O)CC2)c(F)c1` stands 18.4%; under `Cc1nnc(N2CC[C@H]3C[C@@H](C(=O)NC4CCCC4)O[C@H]3C2)s1`, 27%.

As for `CCCc1nnc([C@H]2CCN(Cc3ncc[nH]3)C2)o1`, the cytotoxicity at 70.5 h was -1.6%.

As to `COc1cc(CN2CCCC2c2cccc(F)c2)cc(OC)c1OC` (centres undefined), the cytotoxicity at 70.5 h is -11.4%. Under `Cc1ccc(CN2CCC3(CCCN(S(C)(=O)=O)C3)C2)o1` (centres undefined) stands -12.7%; under `c1ncn(CC2CCCN2Cc2csc(C3CCCCC3)n2)n1` (centres undefined), 1.84%; under `O=C(Nc1nncs1)N(Cc1cccc(F)c1)C1CC1`, -5.56%.

Turning to `O=C1N(Cc2ccc(F)c(F)c2)CCCC1(O)CNCc1ncc[nH]1` (centres undefined), the cytotoxicity at 70.5 h is -1.39%. Under `COCCNC(=O)Cn1c(-c2ccc(Cl)cc2)nc(C)c(CCO)c1=O` stands 3.28%. In the case of `CC(C)CN1C(=O)CC[C@H]2CN(Cc3ncc[nH]3)CC[C@H]21`, the cytotoxicity at 70.5 h was -3.44%. To `Cc1ccc(Nc2cc(N3CCN(S(C)(=O)=O)CC3)nc(C)n2)cc1` belongs -17.3%; to `Cc1ccc2nc3n(c2c1)[C@@H](CNC(=O)c1ccncc1)COC3`, 4.47%. To `CC(C)S(=O)(=O)Cc1cccc(NC(=O)c2ccc[nH]2)c1` belongs -11%; to `O=C(CNc1cc(-c2ccccc2)nc2ccnn12)NC1CC1`, -0.964%; to `CC(O)c1cn(CC2CCN(C(=O)c3cscn3)CC2)nn1` (centres undefined), -3.74%. On to `Cc1ncc2c(n1)CCN(CCCc1nc3ccccc3o1)C2`, for which the cytotoxicity at 70.5 h is -2.27%. For `CC(C)(C)NC[C@@H]1CCC[C@@H]2CN(Cc3csnn3)C[C@@H]21`, the cytotoxicity at 70.5 h is -2.73%. Take `CN(C)C(=O)N1CCC2(CC1)COCCN(c1ncccn1)C2`: the cytotoxicity at 70.5 h was -3.19%. As for `N#Cc1ccnc(SCC2CN=C(N3CCOCC3)S2)c1` (centres undefined), the cytotoxicity at 70.5 h stood at 2.81%. As to `COc1ccccc1-c1ccc(NCc2cn3c(n2)SCC3)nn1`, the cytotoxicity at 70.5 h was -7.12%. As to `CCc1ccc2nc(C)cc(C(=O)N[C@@H]3CCCNC3)c2c1`, the cytotoxicity at 70.5 h turned out to be 2.34%. For the compound `CC(C)CC(=O)Nc1ccccc1Oc1ccsc1C(=O)O`, the cytotoxicity at 70.5 h is -2.03%. For `Cc1ccc(NCc2cn3c(n2)CN(Cc2ccoc2)CC3)nn1`, the cytotoxicity at 70.5 h amounted to 12%. Regarding `CC1CCCN1C1CCN(C(=O)c2cccc(-c3ccoc3)c2)CC1` (centres undefined), the cytotoxicity at 70.5 h amounted to 10.8%. To `O=C(NCc1ccccn1)[C@H]1COC[C@H]2CN(Cc3ccoc3)C[C@H]21` belongs -2.29%; to `CN(C)C(=O)C1CCN(Cc2csc(C(C)(C)C)n2)CC1`, 18%; to `Cc1ccc2[nH]nc(C(=O)NCC3CCN(Cc4c[nH]cn4)C3)c2c1` (centres undefined), -5.7%. Regarding `CN1CCN(Cc2cn3c(n2)CN(Cc2cccc(F)c2)CC3)CC1`, the cytotoxicity at 70.5 h was -11.9%. To `O=C(c1ccco1)N1CC[C@@H]2O[C@@H](COCCN3CCCC3)CC[C@@H]21` belongs -3.08%; to `O=C(CCc1cccs1)NCC1CCCN1c1cccnn1` (centres undefined), 3.16%. Regarding `O=C(c1cccnc1)N(CCO)Cc1cc(Br)ccc1F`, the cytotoxicity at 70.5 h is -3.63%. With `CCC(=O)N1CCN(C(=O)NCCOc2ccc3c(c2)CCC3)CC1`, the cytotoxicity at 70.5 h was -8.5%. With `Cc1ccc(C2CSCCN2C(=O)C2=CCCC2)o1` (centres undefined), the cytotoxicity at 70.5 h is -6.86%. As for `CC(C)c1nccn1C(C)C(=O)NC1CCN(S(C)(=O)=O)CC1` (centres undefined), the cytotoxicity at 70.5 h stood at 3.51%.

Take `CCCC(=O)N(Cc1ccncc1)C(C)CC` (centres undefined): the cytotoxicity at 70.5 h is -6.83%.

Consider `Cc1ccc(NC(=O)NCC2(N3CCOCC3)CCSC2)c(C)c1` (centres undefined), for which the cytotoxicity at 70.5 h was determined as 8.25%. Regarding `COCCn1ccc(NC(=O)CNC(=O)CC(C)(C)C)n1`, the cytotoxicity at 70.5 h was 27.5%. For the compound `Cc1nn(C)cc1-c1cncn1CCc1ccc2c(c1)OCCO2`, the cytotoxicity at 70.5 h was -9.48%. As to `Cc1oc(NC(=O)C(C)N2CCN(CCO)CC2)c(C#N)c1C` (centres undefined), the cytotoxicity at 70.5 h is -2.61%. Turning to `Cc1nc(N2CCCOC(Cn3cccn3)C2)c2sccc2n1` (centres undefined), the cytotoxicity at 70.5 h is -2.92%. For the compound `c1ccc2oc(NC3CCCN(Cc4noc(C5CC5)n4)C3)nc2c1` (centres undefined), the cytotoxicity at 70.5 h was -10.4%. `CNc1cncc(C2CCCN2C(=O)CCn2ccnc2C(C)C)n1` (centres undefined): the cytotoxicity at 70.5 h was -3%. Regarding `Cc1cccc(C(=O)N2CCCCC2c2ccc(CN(C)C)cc2)n1` (centres undefined), the cytotoxicity at 70.5 h is 18.3%. As for `Cc1cccc(S(=O)(=O)N2CCCC3(CCCN3S(C)(=O)=O)C2)c1` (centres undefined), the cytotoxicity at 70.5 h was 3.22%. Under `Cc1cccc(C2(C(=O)NCC3CCN(CC(F)(F)F)C3)CCC2)c1` (centres undefined) stands -1.39%. With `CSCc1nc(CNC(=O)C2CCCN(CC(N)=O)C2)cs1` (centres undefined), the cytotoxicity at 70.5 h was 11.4%. Under `CC(C)CC(C(=O)N1CCCSCC1)N1CCCCC1=O` (centres undefined) stands -3.18%; under `O=C(c1nc(=O)[nH]c2ccccc12)N1CCCC(CC2CC2)(C(=O)O)C1` (centres undefined), -8.79%; under `Cc1cc(C(=O)N2CCc3nc(N4CCOCC4)nc(C)c3C2)c(C)o1`, -6.78%. As to `CC(=O)N1CCCN(CCCSCc2ccccc2)CC1`, the cytotoxicity at 70.5 h was -6.67%. Under `CN(C)S(=O)(=O)N1CC[C@]2(C[C@H](Oc3ncccc3F)CO2)C1` stands 2.84%; under `NC1(CN2CCOCC2)CCCCC1`, -2.02%; under `OCCN1CCN(CC(O)c2ccc(OC(F)(F)F)cc2)CC1` (centres undefined), -2.1%. To `Cc1cnc(C)c(N2CC[C@H](N3CCOCC3)[C@H](CCCO)C2)n1` belongs -9.88%; to `Cc1nnc(CN(C)CCCOc2ccc(Cl)cc2)o1`, -10.2%.

Take `O=C(NC1CC1)c1ccnc(-c2cc(NCCO)nc3[nH]ccc23)c1`: the cytotoxicity at 70.5 h came to 21.9%. In the case of `CCc1nc(CN(C)C(=O)CSC)no1`, the cytotoxicity at 70.5 h was -11.3%. With `COC(=O)CNC(=O)C1(NC(=O)c2ccc3[nH]ncc3c2)CCCC1`, the cytotoxicity at 70.5 h was determined as 0.707%. In the case of `O=C(NCc1ccco1)[C@@H]1CC[C@@H]2[C@@H](CCN2CC2CC2)O1`, the cytotoxicity at 70.5 h is -6.24%. To `O=C(c1cc(F)ccc1F)C1CCN(C(=O)c2cnccn2)CC1` belongs -4.44%; to `CC(C)c1nc(-c2ccnc(N3CCNCC3)n2)no1`, -7.09%.

As for `CN(C)C(=O)CN1CCCCC1c1nc(N)ncc1-c1ccc(Cl)cc1` (centres undefined), the cytotoxicity at 70.5 h is -15.8%.

Regarding `CC(C)NC(=O)C(C)S(=O)(=O)c1cc2c(cc1Cl)OCCO2` (centres undefined), the cytotoxicity at 70.5 h is -7.06%.

With `Cc1ccc(N2CCCN(C(=O)CC3CCCO3)CC2)nn1` (centres undefined), the cytotoxicity at 70.5 h was -18.7%. Take `O=C1CCC2(CCCN(C(=O)c3ccc[nH]3)C2)CN1CCc1c[nH]cn1` (centres undefined): the cytotoxicity at 70.5 h stood at 16.9%.

`CC(C)OCCS(=O)(=O)N1CCN(Cc2cccn2C)CC1`: the cytotoxicity at 70.5 h was -8.85%.

Regarding `CNC(=O)CN1CCCC1c1ccccc1Br` (centres undefined), the cytotoxicity at 70.5 h was -6.18%.

Turning to `Cc1ccc(C(=O)NCc2ccnc(N(C)C)c2)c(C)c1`, the cytotoxicity at 70.5 h worked out at 1.03%. For the compound `c1ccc(-c2nnn3c2COC(CNCC2CCOCC2)C3)cc1` (centres undefined), the cytotoxicity at 70.5 h is -5.85%.

Consider `O=C(NCC(O)Cc1ccccc1)c1ccc2[nH]c(=O)[nH]c2c1` (centres undefined), for which the cytotoxicity at 70.5 h was -6.14%.

For the compound `CN(C(=O)c1cccc(C(=O)NS(C)(=O)=O)c1)c1ccccc1`, the cytotoxicity at 70.5 h is -8.09%. On to `COc1cccn(CC(=O)N2CCCC3(CCCCC3)C2)c1=O`, for which the cytotoxicity at 70.5 h was -4.6%. Under `Cc1cc(C)n(C2=NC(NCCC(C)C)c3c(sc4c3CCCC4)N2)n1` (centres undefined) stands 1.07%; under `Cc1ccc(CC(=O)N2CCCC(c3ccn[nH]3)C2)cn1` (centres undefined), 0.114%; under `CN1CCn2nc(-c3nc4ccccc4n3C)cc2C1`, 32.2%. Consider `Cc1cc(C)n(CC(C)NCc2cnc3c(C)cccn23)n1` (centres undefined), for which the cytotoxicity at 70.5 h is -2.32%. For the compound `CC(CO)NC(=O)Nc1ccc(S(C)(=O)=O)nc1` (centres undefined), the cytotoxicity at 70.5 h is -2.27%. Turning to `c1ccc(CN2CCCn3nnc(CNc4ncccn4)c3C2)nc1`, the cytotoxicity at 70.5 h was -87.8%.

In the case of `CSc1ccc(S(=O)(=O)NC2CNC(=O)C2)cc1` (centres undefined), the cytotoxicity at 70.5 h was -3.59%.

For `CCN1CCN(Cc2nc(Cc3ccccc3)n[nH]2)CC1`, the cytotoxicity at 70.5 h is -5.11%. Regarding `Cc1ccc(F)c(OC2(C(=O)O)CCN(C(=O)c3ccco3)CC2)c1`, the cytotoxicity at 70.5 h was -7.46%. As to `Cc1cc(C[C@@H]2CCC[C@H]2NCc2c[nH]nc2-c2ccccc2)on1`, the cytotoxicity at 70.5 h turned out to be 20.7%. As to `CCC1CCc2c(c3ccccc3[nH]c2=O)O1` (centres undefined), the cytotoxicity at 70.5 h was found to be 24.6%. As to `COCCc1noc(CN(C)c2nc(C)nc(C)c2C)n1`, the cytotoxicity at 70.5 h was found to be 25.3%.
